Earlier results, collected in US20070092539A1 (priority 2003, published 2007).

Assays:
[1] = tested on: rates with arthritis; conditions: experimental models on rates with arthritis, compared with other AINEs

solubility in methanol (methanol): slightly soluble in methanol
solubility in water (water): practically insoluble in water
Compound: Cc1cnc(NC(=O)C2=C(O)c3ccccc3S(=O)(=O)N2C)s1 [meloxicam, 4-hydroxy-2-methyl-N-(5-methyl-2-thiazolyl)-2H-1,2-benzotiazine-3-carboxamide-1,1-dioxide]
therapeutic margin (ulcerogenic vs anti-inflammatory doses) [1]: superior therapeutic margin over the other AINEs
